Test results reported in ChEMBL document CHEMBL1201862, “PubChem BioAssay data set” (2004).
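96-well plates; 48 h exposure; 5 concentrations. Endpoints by linear interpolation between flanking doses. Not reached: highest tested concentration assigned. At the GI50, growth is halved.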 Activity calls are given as the source filed them. No stated cut-off is given here; in the data, active = GI50 up to about 1.1 µM and inactive = higher.

Key:
Experiment in all cases: NCI tumour cell line growth inhibition, 48 h
RXF 393 = system: RXF 393
SF-295 = system: SF-295
SNB-19 = system: SNB-19
MDA-N = system: MDA-N
M14 = system: M14
HOP-92 = system: HOP-92
NCI-H226 = system: NCI-H226
HCT-15 = system: HCT-15
NCI-H460 = system: NCI-H460
OVCAR-8 = system: OVCAR-8
BT-549 = system: BT-549
HT-29 = system: HT-29
HCC 2998 = system: HCC 2998
SK-OV-3 = system: SK-OV-3
MDA-MB-231 = system: MDA-MB-231
Hs-578T = system: Hs-578T
MOLT-4 = system: MOLT-4
Malme-3M = system: Malme-3M
UACC-257 = system: UACC-257
RPMI-8226 = system: RPMI-8226
MCF7 = system: MCF7
CAKI-1 = system: CAKI-1
OVCAR-3 = system: OVCAR-3
A549 = system: A549
SF-268 = system: SF-268
K562 = system: K562
A498 = system: A498
LOX IMVI = system: LOX IMVI
SR = system: SR
UACC-62 = system: UACC-62
CCRF-CEM = system: CCRF-CEM
UO-31 = system: UO-31
SK-MEL-2 = system: SK-MEL-2
OVCAR-5 = system: OVCAR-5
ACHN = system: ACHN
SK-MEL-28 = system: SK-MEL-28
COLO 205 = system: COLO 205
NCI-H522 = system: NCI-H522
KM12 = system: KM12
SN12C = system: SN12C
SK-MEL-5 = system: SK-MEL-5
HL-60 = system: HL-60
786-0 = system: 786-0
PC-3 = system: PC-3
DU-145 = system: DU-145
HOP-62 = system: HOP-62
HCT-116 = system: HCT-116
NCI/ADR-RES = system: NCI/ADR-RES
NCI-H23 = system: NCI-H23
TK-10 = system: TK-10
T47D = system: T47D
SNB-75 = system: SNB-75
IGROV-1 = system: IGROV-1
OVCAR-4 = system: OVCAR-4
EKVX = system: EKVX
U-251 = system: U-251
MDA-MB-435 = system: MDA-MB-435
SW-620 = system: SW-620
SF-539 = system: SF-539

`CCOC(=O)/C=C/C(Br)=C(Br)/C=C/C(=O)OCC` was tested, and the GI50 (RXF 393) was 8.93 µM (inactive), the GI50 (SF-295) was 14.8 µM (inactive) and the GI50 (SNB-19) was 17.5 µM (inactive). The GI50 (MDA-N) was 10.3 µM (inactive), the GI50 (M14) was 13.3 µM (inactive) and the GI50 (HOP-92) was 19.1 µM (inactive). For the same molecule, the GI50 (NCI-H226) was 29.5 µM (inactive), the GI50 (HCT-15) was 4.92 µM and the GI50 (NCI-H460) was 33.9 µM (inactive). For the same molecule, the GI50 (OVCAR-8) was 4.79 µM (inactive), the GI50 (BT-549) was 5.62 µM (inactive) and the GI50 (HT-29) was 14.8 µM (inactive). The GI50 (HCC 2998) was 20.6 µM (inactive), the GI50 (SK-OV-3) was 20.3 µM (inactive) and the GI50 (MDA-MB-231) was 16.3 µM (inactive). For the same molecule, the GI50 (Hs-578T) was 29.2 µM (inactive), the GI50 (MOLT-4) was 1.83 µM (inactive) and the GI50 (Malme-3M) was 3.4 µM (inactive). The GI50 (UACC-257) was 18.2 µM (inactive), the GI50 (RPMI-8226) was 2.59 µM (inactive) and the GI50 (MCF7) was 7.93 µM (inactive). The GI50 (CAKI-1) was 3.84 µM (inactive), the GI50 (OVCAR-3) was 12.1 µM (inactive) and the GI50 (A549) was 22.5 µM (inactive). The GI50 (SF-268) was 18 µM (inactive), the GI50 (K562) was 2.65 µM (inactive) and the GI50 (A498) was 26.9 µM (inactive). For the same molecule, the GI50 (LOX IMVI) was 2.52 µM (inactive), the GI50 (SR) was 7.8 µM (inactive) and the GI50 (UACC-62) was 15.4 µM (inactive). The GI50 (CCRF-CEM) was 0.796 µM (active), the GI50 (UO-31) was 10.7 µM (inactive) and the GI50 (SK-MEL-2) was 20.2 µM (inactive). For the same molecule, the GI50 (OVCAR-5) was 18.6 µM (inactive), the GI50 (ACHN) was 12.3 µM (inactive) and the GI50 (SK-MEL-28) was 12.4 µM (inactive). For the same molecule, the GI50 (COLO 205) was 16.4 µM (inactive), the GI50 (NCI-H522) was 2.12 µM (inactive) and the GI50 (KM12) was 16.6 µM (inactive). The GI50 (SN12C) was 7.85 µM (inactive), the GI50 (SK-MEL-5) was 12.9 µM (inactive) and the GI50 (HL-60) was 5.85 µM (inactive). For the same molecule, the GI50 (786-0) was 3.01 µM (inactive), the GI50 (PC-3) was 13.5 µM (inactive) and the GI50 (DU-145) was 13.1 µM (inactive). For the same molecule, the GI50 (HOP-62) was 17.9 µM (inactive), the GI50 (HCT-116) was 2.77 µM (inactive) and the GI50 (NCI/ADR-RES) was 11.4 µM (inactive). For the same molecule, the GI50 (NCI-H23) was 14.5 µM (inactive), the GI50 (TK-10) was 14.2 µM (inactive) and the GI50 (T47D) was 14.8 µM (inactive). For the same molecule, the GI50 (SNB-75) was 12.4 µM (inactive), the GI50 (IGROV-1) was 14.2 µM (inactive) and the GI50 (OVCAR-4) was 17.7 µM (inactive). The GI50 (EKVX) was 17.9 µM (inactive), the GI50 (U-251) was 14.6 µM (inactive) and the GI50 (MDA-MB-435) was 7.13 µM (inactive).

With `COc1c(C)c(OCC=C(C)C)cc(CO)c1CO` the GI50 (RXF 393) was 10.7 µM (inactive), the GI50 (SF-295) was 45.4 µM (inactive) and the GI50 (SNB-19) was 88.3 µM (inactive). The GI50 (MDA-N) was 71.3 µM (inactive), the GI50 (M14) was > 100 µM (inactive) and the GI50 (HOP-92) was > 100 µM (inactive). For the same molecule, the GI50 (NCI-H226) was 87.3 µM (inactive), the GI50 (HCT-15) was 41.5 µM and the GI50 (NCI-H460) was 38.7 µM (inactive). For the same molecule, the GI50 (OVCAR-8) was 36 µM (inactive), the GI50 (BT-549) was 42.9 µM (inactive) and the GI50 (SW-620) was 74.5 µM (inactive). For the same molecule, the GI50 (HT-29) was 54.5 µM (inactive), the GI50 (HCC 2998) was 82.6 µM (inactive) and the GI50 (SK-OV-3) was 97.3 µM (inactive). The GI50 (MDA-MB-231) was 69.8 µM (inactive), the GI50 (Hs-578T) was 44.1 µM (inactive) and the GI50 (SF-539) was 53.7 µM (inactive). The GI50 (MOLT-4) was 26.7 µM (inactive), the GI50 (UACC-257) was 81.8 µM (inactive) and the GI50 (RPMI-8226) was 20.4 µM (inactive). For the same molecule, the GI50 (MCF7) was 38.5 µM (inactive), the GI50 (CAKI-1) was 46.8 µM (inactive) and the GI50 (A549) was 47.5 µM (inactive). For the same molecule, the GI50 (SF-268) was > 100 µM (inactive), the GI50 (K562) was 26.3 µM (inactive) and the GI50 (A498) was 44.1 µM (inactive). The GI50 (LOX IMVI) was 28.9 µM (inactive), the GI50 (SR) was 18.2 µM (inactive) and the GI50 (UACC-62) was 60.8 µM (inactive). For the same molecule, the GI50 (CCRF-CEM) was 44.9 µM (inactive), the GI50 (SK-MEL-2) was 71.4 µM (inactive) and the GI50 (OVCAR-5) was > 100 µM (inactive). For the same molecule, the GI50 (ACHN) was 67.8 µM (inactive), the GI50 (COLO 205) was 58.6 µM (inactive) and the GI50 (NCI-H522) was 7.46 µM (inactive). For the same molecule, the GI50 (KM12) was 63 µM (inactive), the GI50 (SN12C) was 88.3 µM (inactive) and the GI50 (SK-MEL-5) was 22.6 µM (inactive). For the same molecule, the GI50 (HL-60) was 47.5 µM (inactive), the GI50 (786-0) was 7.23 µM (inactive) and the GI50 (PC-3) was 36 µM (inactive). For the same molecule, the GI50 (DU-145) was 92 µM (inactive), the GI50 (HOP-62) was 56.5 µM (inactive) and the GI50 (HCT-116) was 32.6 µM (inactive). For the same molecule, the GI50 (NCI/ADR-RES) was 26.3 µM (inactive), the GI50 (NCI-H23) was 38.7 µM (inactive) and the GI50 (TK-10) was 89.5 µM (inactive). The GI50 (T47D) was 38.1 µM (inactive), the GI50 (SNB-75) was 47.6 µM (inactive) and the GI50 (IGROV-1) was 38.2 µM (inactive). The GI50 (OVCAR-4) was 35.6 µM (inactive), the GI50 (EKVX) was 77.8 µM (inactive) and the GI50 (U-251) was 50.1 µM (inactive). For the same molecule, the GI50 (MDA-MB-435) was 55.3 µM (inactive).

`O=C1Nc2ccccc2/C1=N/Nc1ccc([N+](=O)[O-])cc1[N+](=O)[O-]` was tested, and the GI50 (RXF 393) was 13.6 µM (inactive), the GI50 (SF-295) was 8.77 µM (inactive) and the GI50 (SNB-19) was 19.4 µM (inactive). The GI50 (MDA-N) was 44.3 µM (inactive), the GI50 (M14) was 12.9 µM (inactive) and the GI50 (HOP-92) was 3.58 µM (inactive). For the same molecule, the GI50 (NCI-H226) was 12 µM (inactive), the GI50 (HCT-15) was 13.8 µM and the GI50 (NCI-H460) was 7.89 µM (inactive). For the same molecule, the GI50 (OVCAR-8) was 9.59 µM (inactive), the GI50 (BT-549) was 12.1 µM (inactive) and the GI50 (SW-620) was > 100 µM (inactive). For the same molecule, the GI50 (HT-29) was 19.1 µM (inactive), the GI50 (HCC 2998) was 11.6 µM (inactive) and the GI50 (SK-OV-3) was 12.1 µM (inactive). For the same molecule, the GI50 (MDA-MB-231) was 13.2 µM (inactive), the GI50 (Hs-578T) was 6.37 µM (inactive) and the GI50 (SF-539) was 2.48 µM (inactive). The GI50 (MOLT-4) was > 100 µM (inactive), the GI50 (UACC-257) was 8.49 µM (inactive) and the GI50 (RPMI-8226) was 26.1 µM (inactive). For the same molecule, the GI50 (MCF7) was 8.67 µM (inactive), the GI50 (CAKI-1) was 20.4 µM (inactive) and the GI50 (OVCAR-3) was 3.13 µM (inactive). The GI50 (A549) was 12.5 µM (inactive), the GI50 (SF-268) was 20.9 µM (inactive) and the GI50 (K562) was 32.4 µM (inactive). For the same molecule, the GI50 (A498) was 22.4 µM (inactive), the GI50 (LOX IMVI) was 6.78 µM (inactive) and the GI50 (SR) was 25.6 µM (inactive). The GI50 (UACC-62) was 20.3 µM (inactive), the GI50 (CCRF-CEM) was > 100 µM (inactive) and the GI50 (UO-31) was 13.2 µM (inactive). The GI50 (OVCAR-5) was 12.6 µM (inactive), the GI50 (ACHN) was 7.08 µM (inactive) and the GI50 (SK-MEL-28) was 63 µM (inactive). The GI50 (COLO 205) was 14.5 µM (inactive), the GI50 (NCI-H522) was 12.9 µM (inactive) and the GI50 (KM12) was 13.6 µM (inactive). For the same molecule, the GI50 (SN12C) was 11.3 µM (inactive), the GI50 (SK-MEL-5) was 10.6 µM (inactive) and the GI50 (HL-60) was > 100 µM (inactive). The GI50 (786-0) was 9.25 µM (inactive), the GI50 (PC-3) was 12.9 µM (inactive) and the GI50 (DU-145) was 7.82 µM (inactive). For the same molecule, the GI50 (HOP-62) was 9.04 µM (inactive), the GI50 (HCT-116) was 17.9 µM (inactive) and the GI50 (NCI/ADR-RES) was 8.09 µM (inactive). The GI50 (NCI-H23) was 12.4 µM (inactive), the GI50 (TK-10) was 9.08 µM (inactive) and the GI50 (T47D) was 15.7 µM (inactive). For the same molecule, the GI50 (SNB-75) was 18.7 µM (inactive), the GI50 (IGROV-1) was 7.94 µM (inactive) and the GI50 (OVCAR-4) was 10 µM (inactive). For the same molecule, the GI50 (EKVX) was 1.5 µM (inactive), the GI50 (U-251) was 8.87 µM (inactive) and the GI50 (MDA-MB-435) was 98.4 µM (inactive).
